4 compounds from patent publication US9884816B2, “Sulforaphane-derived compounds, production method thereof and the medical, food and cosmetic use of same” (Consejo Superior De Investigaciones Científicas (CSIC), priority 2012, dated 2018) can be followed below.

Assay [1] deals with MRC-5 (fetal lung fibroblasts). The assay can be described thus: Cytotoxicity curve, MRC-5 cell line. The following applies: mean ± SEM, at least 3 independent experiments. The format is cell-based. As for the experimental part:
(§1) FIG. 5. Curve of cytotoxicity of the compounds 15S, and 15R, at four different concentrations ([…]) in comparison with Sigma-Aldrich® sulphoraphane at five different concentrations ([…]) for the cell lines A-549 (human lung adenocarcinoma) and MRC-5 (fetal lung fibroblasts), showing IC50 for all the products in each of the cell lines used in the test, expressed as mean±standard error (SEM) of all the tests conducted. Each diagram represents at least 3 independent experiments and both within them and for each value of IC50, the result of statistical analysis is indicated for the t-test with the p-value. The t-test indicates whether two values have a significant difference from the statistical standpoint. A p-value above 0.05 is not regarded as statistically significant and is not represented by any symbol, a p-value below 0.05 indicates statistical significance and is indicated with an asterisk (*), and then if p is below 0.01 it is indicated with two asterisks, and with three if it is below 0.001.

Assay [2] deals with A-549 (human lung adenocarcinoma). Kind of assay: Cytotoxicity curve, A-549 cell line. The format is cell-based. The following applies: mean ± SEM, at least 3 independent experiments. Here is the method: as §1

Turning to `C[S+]([O-])CCCCN=C=S` (centres unmarked) [SF Sigma ®], the half-maximal inhibitory concentration (IC50) (commonly the concentration at which inhibition is half-maximal) in assay [1] came out at 30.5 ± 2.02 µM; in assay [2], 16.5 ± 3.05 µM.
Regarding `C[S@+]([O-])CCOCCOCCN=C=S` [SF 15Ss, (S)-(+)-8-Isothiocyanato-3,6-dioxaoctanylmethyl sulphoxide], the concentration for half-maximal inhibition (IC50) in assay [1] was 58.3 ± 6.54 µM; in assay [2], 22.7 ± 0.69 µM.
“(R)-(−)-8-Isocyanato-3,6-dioxaoctanylmethyl sulphoxide [SF 15Rs]”: the IC50 in assay [1] turned out to be 67.3 ± 6.25 µM; in assay [2] it was 29.4 ± 3.89 µM.
For `C[S@@+]([O-])CCCCN=C=S` (racemic) [SF, (Rs)-1-isothiocyanato-4-(methylsulphinyl)-butane], the results for the IC50 in assay [1] and in assay [2] were 46.6 ± 2.19 µM and 19.6 ± 2.27 µM, respectively.
